Measurements taken from US5756521A, “Chroman-2-ylmethylamino derivatives” (American Home Products Corporation, priority 1997, dated 1998).

Legend:
[1] = target: T1, dopamine autoreceptor (D2, 3H-quinpirole) (Rattus norvegicus, UniProt P61169); assay: Dopamine autoreceptor affinity, 3H-quinpirole binding in homogenized rat striatal brain tissue; details: rat striatal brain tissue homogenate, read-out: IC50 (nM), D2, (Quin.)
T1 construct: homogenized rat striatal brain tissue; from tissue; host or cells: rat striatal brain tissue
Method: Affinity for the dopamine autoreceptor was established by a modification of the standard experimental test procedure of Seemen and Schaus, European Journal of Pharmacology 203: 105-109, 1991, wherein homogenized rat striatal brain tissue is incubated with ^3 H-quinpirole (Quin.) and various concentrations of test compound, filtered and washed and counted in a Betaplate scintillation counter.

dopamine D-2 receptor = target: T2, dopamine D-2 receptor (Rattus norvegicus, UniProt P61169); assay: Dopamine D-2 receptor affinity, 3H-spiroperidol binding in homogenized limbic brain tissue
T2 construct: homogenized limbic brain tissue; from tissue
Method: High affinity for the dopamine D-2 receptor was established by the standard experimental test procedure of Fields, et al., Brain Res., 136, 578 (1977) and Yamamura et al., eds., Neurotransmitter Receptor Binding, Raven Press, N.Y. (1978) wherein homogenized limbic brain tissue is incubated with ^3 H-spiroperidol (Spiper.) and various concentrations of test compound, filtered and washed and shaken with Hydrofluor scintillation cocktail (National Diagnostics) and counted in a Packard 460 CD scintillation counter.

T2 sequence (P61169 whole entry): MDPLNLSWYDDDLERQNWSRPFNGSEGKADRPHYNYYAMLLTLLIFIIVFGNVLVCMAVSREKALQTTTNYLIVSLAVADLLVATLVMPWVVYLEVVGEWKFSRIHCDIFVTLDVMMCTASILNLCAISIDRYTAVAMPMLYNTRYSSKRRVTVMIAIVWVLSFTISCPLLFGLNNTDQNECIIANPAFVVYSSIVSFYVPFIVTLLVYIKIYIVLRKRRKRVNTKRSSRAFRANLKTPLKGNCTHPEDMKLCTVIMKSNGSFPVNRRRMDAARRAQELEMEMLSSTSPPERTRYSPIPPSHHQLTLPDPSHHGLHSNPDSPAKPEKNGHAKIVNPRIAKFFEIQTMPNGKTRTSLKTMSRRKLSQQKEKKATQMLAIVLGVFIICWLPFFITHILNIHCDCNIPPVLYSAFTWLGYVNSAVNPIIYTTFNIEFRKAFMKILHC
T1 sequence (P61169 whole entry): as above

With `Oc1ccc2c(c1)OC(CNCc1ccccn1)CC2` (stereo not drawn) [Example 1] as the compound, how does the IC50 [1] read?
Its IC50 is 2.21 nM.

What about the IC50 (dopamine D-2 receptor; 3H-spiroperidol, limbic brain tissue homogenate, read-out: IC50 (nM), (Spiper.)) of the same compound?
The IC50 was 1230 nM.

What about the ratio (dopamine D-2 receptor; ratio of IC50 (Spiper.) to IC50 (Quin.), LowAg/HighAg) of the same compound?
The ratio was 557.
